The values below are quoted from earlier work in article PMC8136953 (Veterinary Medicine and Science, 2020).

On the set-up of the data set: method as in Park et al., 2006. The note with it: ref Park et al., 2006; cited from earlier work.

The structures appear in SMILES notation.

As for `CS(=O)(=O)c1ccc([C@@H](O)[C@H](N)CF)cc1` [FLO amine, florfenicol amine], the Antibacterial activity entry is recorded as “virtually lacks antibacterial activity”.
